Reference: US10344060B2 (priority 2013, dated 2019)
Read-outs that look alike come from different tables or passages of the source.

Experiments:
Assay in all cases: cell-based
Type in all cases: cell-based
[1] = target: hNav1.4 (Homo sapiens, UniProt P35499); settings: Table 12; for IC50: PatchXpress, tonic block, read-out: PX hNav1.4 Tonic IC50; for Nav1.4/Nav1.7: ratio of PX tonic IC50 values
[2] = target: hNav1.6 (Homo sapiens, UniProt Q9UQD0); settings: Table 15; for Nav1.6/Nav1.7: ratio of PX tonic IC50 values; for IC50: read-out: PX hNav1.6 Tonic IC50
[3] = target: hNav1.7 (Homo sapiens, UniProt Q15858); settings: read-out: PX hNav1.7 Tonic IC50
Chain of hNav1.7 (Q15858 whole entry): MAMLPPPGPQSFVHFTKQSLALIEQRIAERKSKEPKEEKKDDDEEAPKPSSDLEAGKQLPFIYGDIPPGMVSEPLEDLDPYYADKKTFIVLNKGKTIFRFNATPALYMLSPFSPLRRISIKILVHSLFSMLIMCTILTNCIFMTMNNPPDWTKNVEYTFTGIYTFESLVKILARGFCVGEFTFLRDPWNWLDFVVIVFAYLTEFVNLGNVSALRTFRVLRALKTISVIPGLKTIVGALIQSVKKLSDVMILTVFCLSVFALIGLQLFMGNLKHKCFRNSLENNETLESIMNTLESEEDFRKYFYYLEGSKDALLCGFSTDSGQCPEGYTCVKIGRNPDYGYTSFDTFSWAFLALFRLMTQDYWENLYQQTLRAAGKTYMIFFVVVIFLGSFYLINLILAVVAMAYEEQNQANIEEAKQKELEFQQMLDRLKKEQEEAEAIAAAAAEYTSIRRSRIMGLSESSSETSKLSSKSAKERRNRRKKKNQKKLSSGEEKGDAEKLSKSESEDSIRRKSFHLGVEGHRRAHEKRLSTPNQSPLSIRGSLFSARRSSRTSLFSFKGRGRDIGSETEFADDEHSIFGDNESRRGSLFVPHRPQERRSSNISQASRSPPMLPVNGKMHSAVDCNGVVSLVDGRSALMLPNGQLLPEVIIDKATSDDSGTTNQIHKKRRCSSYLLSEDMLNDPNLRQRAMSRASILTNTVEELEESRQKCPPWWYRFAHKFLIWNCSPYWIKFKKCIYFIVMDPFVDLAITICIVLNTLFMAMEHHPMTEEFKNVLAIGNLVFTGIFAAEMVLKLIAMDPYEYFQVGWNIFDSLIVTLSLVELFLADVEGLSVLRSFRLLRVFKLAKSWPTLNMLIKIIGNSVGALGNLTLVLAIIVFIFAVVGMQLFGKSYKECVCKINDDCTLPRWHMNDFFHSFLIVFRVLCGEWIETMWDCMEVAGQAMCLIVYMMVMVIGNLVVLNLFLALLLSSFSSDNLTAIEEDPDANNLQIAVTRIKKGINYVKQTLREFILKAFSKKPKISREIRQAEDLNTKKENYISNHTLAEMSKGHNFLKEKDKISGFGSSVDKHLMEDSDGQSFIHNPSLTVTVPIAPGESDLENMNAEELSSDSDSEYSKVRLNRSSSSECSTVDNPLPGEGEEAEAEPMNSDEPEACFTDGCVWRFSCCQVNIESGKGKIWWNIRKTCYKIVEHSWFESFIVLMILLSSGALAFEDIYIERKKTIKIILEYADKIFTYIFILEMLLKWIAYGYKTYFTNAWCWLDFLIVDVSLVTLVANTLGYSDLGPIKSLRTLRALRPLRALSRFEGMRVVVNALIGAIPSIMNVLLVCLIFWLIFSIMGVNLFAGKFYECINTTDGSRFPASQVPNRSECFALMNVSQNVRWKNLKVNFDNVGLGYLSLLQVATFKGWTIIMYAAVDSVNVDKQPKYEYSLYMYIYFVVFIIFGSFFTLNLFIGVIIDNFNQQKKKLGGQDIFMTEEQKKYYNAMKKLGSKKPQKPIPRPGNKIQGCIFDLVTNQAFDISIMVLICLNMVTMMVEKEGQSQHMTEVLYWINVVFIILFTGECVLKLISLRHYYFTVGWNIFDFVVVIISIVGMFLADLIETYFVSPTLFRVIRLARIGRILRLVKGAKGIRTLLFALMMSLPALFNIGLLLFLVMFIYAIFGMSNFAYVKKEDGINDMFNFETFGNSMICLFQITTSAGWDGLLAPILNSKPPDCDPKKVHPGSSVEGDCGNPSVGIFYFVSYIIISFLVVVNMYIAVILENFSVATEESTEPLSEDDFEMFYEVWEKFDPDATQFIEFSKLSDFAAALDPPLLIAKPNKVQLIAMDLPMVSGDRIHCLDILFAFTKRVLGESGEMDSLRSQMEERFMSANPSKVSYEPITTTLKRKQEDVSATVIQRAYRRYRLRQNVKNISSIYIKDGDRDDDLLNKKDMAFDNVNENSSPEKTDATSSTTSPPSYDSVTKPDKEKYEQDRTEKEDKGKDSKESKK

[4] = Table 12, PatchXpress, tonic block

Chain of hNav1.4 (P35499 whole entry): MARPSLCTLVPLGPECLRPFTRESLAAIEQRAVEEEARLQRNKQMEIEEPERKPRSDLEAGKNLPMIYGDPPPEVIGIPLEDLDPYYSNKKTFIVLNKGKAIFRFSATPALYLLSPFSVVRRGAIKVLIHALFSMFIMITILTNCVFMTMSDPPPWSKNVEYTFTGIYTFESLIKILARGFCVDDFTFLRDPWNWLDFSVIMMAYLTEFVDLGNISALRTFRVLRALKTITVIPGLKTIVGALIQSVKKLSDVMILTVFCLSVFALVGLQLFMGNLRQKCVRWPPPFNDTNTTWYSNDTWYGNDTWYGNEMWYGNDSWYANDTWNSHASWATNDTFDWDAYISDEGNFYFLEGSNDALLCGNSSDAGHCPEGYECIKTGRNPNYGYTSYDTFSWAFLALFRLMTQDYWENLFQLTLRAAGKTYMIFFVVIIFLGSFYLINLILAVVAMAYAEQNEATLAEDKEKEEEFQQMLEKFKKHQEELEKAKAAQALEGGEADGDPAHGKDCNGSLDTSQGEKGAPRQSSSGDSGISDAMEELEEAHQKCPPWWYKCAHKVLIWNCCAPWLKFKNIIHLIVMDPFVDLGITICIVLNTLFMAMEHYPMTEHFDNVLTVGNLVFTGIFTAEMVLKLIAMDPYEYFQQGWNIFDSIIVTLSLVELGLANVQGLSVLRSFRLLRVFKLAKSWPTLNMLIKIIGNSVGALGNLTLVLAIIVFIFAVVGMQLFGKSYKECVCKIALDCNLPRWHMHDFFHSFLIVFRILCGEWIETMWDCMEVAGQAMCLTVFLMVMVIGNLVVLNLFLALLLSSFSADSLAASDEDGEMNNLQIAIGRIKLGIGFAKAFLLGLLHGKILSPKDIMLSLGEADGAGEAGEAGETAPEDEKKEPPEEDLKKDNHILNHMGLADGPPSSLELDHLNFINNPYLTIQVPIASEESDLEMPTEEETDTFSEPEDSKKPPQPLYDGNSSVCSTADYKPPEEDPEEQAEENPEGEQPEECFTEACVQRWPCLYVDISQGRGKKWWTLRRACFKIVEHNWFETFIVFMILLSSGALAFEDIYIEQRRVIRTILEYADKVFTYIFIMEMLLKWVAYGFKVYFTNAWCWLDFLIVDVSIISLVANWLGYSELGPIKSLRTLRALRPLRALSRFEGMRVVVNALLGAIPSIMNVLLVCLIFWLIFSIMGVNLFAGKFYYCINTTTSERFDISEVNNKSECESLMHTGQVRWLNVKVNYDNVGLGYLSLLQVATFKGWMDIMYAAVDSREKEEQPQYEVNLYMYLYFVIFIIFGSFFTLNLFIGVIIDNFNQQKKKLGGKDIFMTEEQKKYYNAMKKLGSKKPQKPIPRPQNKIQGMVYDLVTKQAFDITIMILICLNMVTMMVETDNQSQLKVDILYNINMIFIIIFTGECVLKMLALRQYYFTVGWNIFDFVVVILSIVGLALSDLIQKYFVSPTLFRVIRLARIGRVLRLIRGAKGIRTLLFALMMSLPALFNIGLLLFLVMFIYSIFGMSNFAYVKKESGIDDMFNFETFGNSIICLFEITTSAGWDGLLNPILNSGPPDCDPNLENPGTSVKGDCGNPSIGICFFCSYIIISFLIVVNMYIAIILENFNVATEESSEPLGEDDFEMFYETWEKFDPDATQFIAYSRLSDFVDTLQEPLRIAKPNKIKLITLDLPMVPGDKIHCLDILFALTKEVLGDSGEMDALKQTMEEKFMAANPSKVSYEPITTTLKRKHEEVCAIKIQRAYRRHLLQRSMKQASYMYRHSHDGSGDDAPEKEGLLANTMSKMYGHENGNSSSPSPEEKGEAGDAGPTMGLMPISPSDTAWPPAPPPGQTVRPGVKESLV

Row | SMILES | IC50 [1] | Nav1.4/Nav1.7 [1] | Nav1.6/Nav1.7 [2] | IC50 [2] | IC50 [3, 4] | IC50 ([3]; Table 15)
1 | C#CC[C@H](NC(=O)[C@@H](N)CCC(=O)O)C(=O)N[C@H]1CSSC[C@@H]2NC(=O)[C@@H]3CSSC[C@@H](C(=O)N[C@@H](CCCNC(=N)N)C(=O)N[C@@H](CCCCN)C(=O)N[C@@H](CCC(=O)O)C(=O)N[C@H](C(N)=O)[C@@H](C)CC)NC(=O)[C@H](Cc4c[nH]c5ccccc45)NC(=O)[C@H](CC(C)C)NC(=O)[C@H](CCCCN)NC(=O)[C@H](CSSC[C@H](NC(=O)[C@H]([C@@H](C)O)NC(=O)[C@H](Cc4c[nH]c5ccccc45)NC(=O)[C@H](CCCC)NC(=O)[C@H](Cc4c[nH]c5ccccc45)NC(=O)[C@H](CCCCN)NC(=O)[C@H](CCC(N)=O)NC1=O)C(=O)N[C@@H](CC(=O)O)C(=O)N[C@@H](CO)C(=O)N[C@@H](CCCCN)C(=O)N[C@@H](CCCNC(=N)N)C(=O)N[C@@H](CCC(=O)O)C(=O)N3)NC(=O)[C@H](CCCNC(=N)N)NC(=O)[C@H](CC(C)C)NC(=O)CNC(=O)[C@H](CCC(=O)O)NC2=O [compound 738] | 246 nM | 437 | 1071 | 563 nM | 0.563 nM | 0.525 nM
2 | C#CC[C@H](NC(=O)[C@@H](N)CCC(=O)O)C(=O)N[C@H]1CSSC[C@@H]2NC(=O)[C@@H]3CSSC[C@@H](C(=O)N[C@@H](CCCNC(=N)N)C(=O)N[C@@H](CCCCN)C(=O)N[C@@H](CCC(=O)O)C(=O)N[C@H](C(N)=O)[C@@H](C)CC)NC(=O)[C@H](Cc4c[nH]c5ccccc45)NC(=O)[C@H](CC(C)C)NC(=O)[C@H](CCCCN)NC(=O)[C@H](CSSC[C@H](NC(=O)[C@H]([C@@H](C)O)NC(=O)[C@H](Cc4c[nH]c5ccccc45)NC(=O)[C@H](CCCC)NC(=O)[C@H](Cc4c[nH]c5ccccc45)NC(=O)[C@H](CCCCN)NC(=O)[C@H](CCC(N)=O)NC1=O)C(=O)N[C@@H](CC(=O)O)C(=O)N[C@@H](CCC(=O)O)C(=O)N[C@@H](CCCCN)C(=O)N[C@@H](CCCNC(=N)N)C(=O)N[C@@H](C)C(=O)N3)NC(=O)[C@H](CCCNC(=N)N)NC(=O)[C@H](CC(C)C)NC(=O)CNC(=O)[C@H](CCC(=O)O)NC2=O [compound 736] | 547 nM | 375 | 1730 | 2520 nM | 1.46 nM | 
3 | C#CC[C@H](N)C(=O)N[C@@H](CCC(=O)O)C(=O)N[C@H]1CSSC[C@@H]2NC(=O)[C@@H]3CSSC[C@@H](C(=O)N[C@@H](CCCNC(=N)N)C(=O)N[C@@H](CCCCN)C(=O)N[C@@H](CCC(=O)O)C(=O)N[C@H](C(N)=O)[C@@H](C)CC)NC(=O)[C@H](Cc4c[nH]c5ccccc45)NC(=O)[C@H](CC(C)C)NC(=O)[C@H](CCCCN)NC(=O)[C@H](CSSC[C@H](NC(=O)[C@H]([C@@H](C)O)NC(=O)[C@H](Cc4c[nH]c5ccccc45)NC(=O)[C@H](CCCC)NC(=O)[C@H](Cc4c[nH]c5ccccc45)NC(=O)[C@H](CCCCN)NC(=O)[C@H](CCC(N)=O)NC1=O)C(=O)N[C@@H](CC(=O)O)C(=O)N[C@@H](CO)C(=O)N[C@@H](CCCCN)C(=O)N[C@@H](CCCNC(=N)N)C(=O)N[C@@H](CCC(=O)O)C(=O)N3)NC(=O)[C@H](CCCNC(=N)N)NC(=O)[C@H](CC(C)C)NC(=O)CNC(=O)[C@H](CCC(=O)O)NC2=O [compound 743] | 670 nM | 494 | 1727 | 2340 nM | 1.36 nM | 
4 | C#CC[C@H](N)C(=O)N[C@@H](Cc1ccc(O)cc1)C(=O)N[C@H]1CSSC[C@@H]2NC(=O)[C@@H]3CSSC[C@@H](C(=O)N[C@@H](CCCNC(=N)N)C(=O)N[C@@H](CCCCN)C(=O)N[C@@H](CCC(=O)O)C(=O)N[C@H](C(N)=O)[C@@H](C)CC)NC(=O)[C@H](Cc4c[nH]c5ccccc45)NC(=O)[C@H](CC(C)C)NC(=O)[C@H](CCCCN)NC(=O)[C@H](CSSC[C@H](NC(=O)[C@H](CCC(=O)O)NC(=O)[C@H](Cc4c[nH]c5ccccc45)NC(=O)[C@H](CCCC)NC(=O)[C@H](Cc4c[nH]c5ccccc45)NC(=O)[C@H](CCCCN)NC(=O)[C@H](CCC(N)=O)NC1=O)C(=O)N[C@@H](CC(=O)O)C(=O)N[C@@H](CO)C(=O)N[C@@H](CCCCN)C(=O)N[C@@H](CCCNC(=N)N)C(=O)N[C@@H](C)C(=O)N3)NC(=O)[C@H](CCCNC(=N)N)NC(=O)[C@H](CC(C)C)NC(=O)CNC(=O)[C@H](CCC(=O)O)NC2=O [compound 712] | 1580 nM | 97 | 395 | 6460 nM | 16.4 nM | 
5 | C#CC[C@H](NC(=O)[C@@H](N)CCC(=O)O)C(=O)N[C@@H](Cc1ccc(O)cc1)C(=O)N[C@H]1CSSC[C@@H]2NC(=O)[C@@H]3CSSC[C@@H](C(=O)N[C@@H](CCCNC(=N)N)C(=O)N[C@@H](CCCCN)C(=O)N[C@@H](CCC(=O)O)C(=O)N[C@H](C(N)=O)[C@@H](C)CC)NC(=O)[C@H](Cc4c[nH]c5ccccc45)NC(=O)[C@H](CC(C)C)NC(=O)[C@H](CCCCN)NC(=O)[C@H](CSSC[C@H](NC(=O)[C@H]([C@@H](C)O)NC(=O)[C@H](Cc4c[nH]c5ccccc45)NC(=O)[C@H](CCCC)NC(=O)[C@H](Cc4c[nH]c5ccccc45)NC(=O)[C@H](CCCCN)NC(=O)[C@H](CCC(N)=O)NC1=O)C(=O)N[C@@H](CC(=O)O)C(=O)N[C@@H](CO)C(=O)N[C@@H](CCCCN)C(=O)N[C@@H](CCCNC(=N)N)C(=O)N[C@@H](C)C(=O)N3)NC(=O)[C@H](CCCNC(=N)N)NC(=O)[C@H](CC(C)C)NC(=O)CNC(=O)[C@H](CCC(=O)O)NC2=O [compound 707] | 112 nM | 152 | 236 | 174 nM | 0.738 nM | 
6 | C#CC[C@H](NC(=O)[C@@H](N)CCC(=O)O)C(=O)N[C@H]1CSSC[C@@H]2NC(=O)[C@@H]3CSSC[C@@H](C(=O)N[C@@H](CCCNC(=N)N)C(=O)N[C@@H](CCCCN)C(=O)N[C@@H](CCC(=O)O)C(=O)N[C@H](C(N)=O)[C@@H](C)CC)NC(=O)[C@H](Cc4c[nH]c5ccccc45)NC(=O)[C@H](CC(C)C)NC(=O)[C@H](CCCCN)NC(=O)[C@H](CSSC[C@H](NC(=O)[C@H]([C@@H](C)O)NC(=O)[C@H](Cc4c[nH]c5ccccc45)NC(=O)[C@H](CCCC)NC(=O)[C@H](Cc4c[nH]c5ccccc45)NC(=O)[C@H](CCCCN)NC(=O)[C@H](CCC(N)=O)NC1=O)C(=O)N[C@@H](CC(=O)O)C(=O)N[C@@H](CCC(=O)O)C(=O)N[C@@H](CCC(=O)O)C(=O)N[C@@H](CCCNC(=N)N)C(=O)N[C@@H](C)C(=O)N3)NC(=O)[C@H](CCCNC(=N)N)NC(=O)[C@H](CC(C)C)NC(=O)CNC(=O)[C@H](CCC(=O)O)NC2=O [compound 748] | 2150 nM | 323 | 410 | 2730 nM | 6.66 nM | 
7 | C#CC[C@H](N)C(=O)N[C@@H](Cc1ccc(O)cc1)C(=O)N[C@H]1CSSC[C@@H]2NC(=O)[C@@H]3CSSC[C@@H](C(=O)N[C@@H](CCCNC(=N)N)C(=O)N[C@@H](CCCCN)C(=O)N[C@@H](CCC(=O)O)C(=O)N[C@H](C(N)=O)[C@@H](C)CC)NC(=O)[C@H](Cc4c[nH]c5ccccc45)NC(=O)[C@H](CC(C)C)NC(=O)[C@H](CCCCN)NC(=O)[C@H](CSSC[C@H](NC(=O)[C@H]([C@@H](C)O)NC(=O)[C@H](Cc4c[nH]c5ccccc45)NC(=O)[C@H](CCCC)NC(=O)[C@H](Cc4c[nH]c5ccccc45)NC(=O)[C@H](CCCCN)NC(=O)[C@H](CCC(N)=O)NC1=O)C(=O)N[C@@H](CC(=O)O)C(=O)N[C@@H](CO)C(=O)N[C@@H](CCCCN)C(=O)N[C@@H](CCCNC(=N)N)C(=O)N[C@@H](C)C(=O)N3)NC(=O)[C@H](CCCCN)NC(=O)[C@H](CC(C)C)NC(=O)CNC(=O)[C@H](CCC(=O)O)NC2=O [compound 721] | 185 nM | 357 | 471 | 245 nM | 0.519 nM | 
8 | C#CC[C@@H]1NC(=O)[C@@H]2CSSC[C@H](NC(=O)[C@H](Cc3ccc(O)cc3)NC(=O)[C@@H](N)CC#N)C(=O)N[C@@H](CCC(N)=O)C(=O)N[C@@H](CCCCN)C(=O)N[C@@H](Cc3c[nH]c4ccccc34)C(=O)N[C@@H](CCCC)C(=O)N[C@@H](Cc3c[nH]c4ccccc34)C(=O)N[C@@H]([C@@H](C)O)C(=O)N[C@H]3CSSC[C@H](NC(=O)[C@H](CCCNC(=N)N)NC(=O)[C@H](CC(C)C)NC(=O)CNC1=O)C(=O)N[C@@H](CCCCN)C(=O)N[C@@H](CC(C)C)C(=O)N[C@@H](Cc1c[nH]c4ccccc14)C(=O)N[C@H](C(=O)N[C@@H](CCCNC(=N)N)C(=O)N[C@@H](CCCCN)C(=O)N[C@@H](CCC(=O)O)C(=O)N[C@H](C(N)=O)[C@@H](C)CC)CSSC[C@H](NC(=O)[C@H](CCC(=O)O)NC(=O)[C@H](CCCNC(=N)N)NC(=O)[C@H](CCCCN)NC(=O)[C@H](CO)NC(=O)[C@H](CC(=O)O)NC3=O)C(=O)N2 [compound 733] | 130 nM | 109 | 147 | 175 nM | 1.19 nM | 
9 | C#CC[C@H](N)C(=O)N[C@@H](Cc1ccc(O)cc1)C(=O)N[C@H]1CSSC[C@@H]2NC(=O)[C@@H]3CSSC[C@@H](C(=O)N[C@@H](CCCNC(=N)N)C(=O)N[C@@H](CCCCN)C(=O)N[C@@H](CCC(=O)O)C(=O)N[C@H](C(N)=O)[C@@H](C)CC)NC(=O)[C@H](Cc4c[nH]c5ccccc45)NC(=O)[C@H](CC(C)C)NC(=O)[C@H](CCCCN)NC(=O)[C@H](CSSC[C@H](NC(=O)[C@H]([C@@H](C)O)NC(=O)[C@H](Cc4c[nH]c5ccccc45)NC(=O)[C@H](CCCC)NC(=O)[C@H](Cc4c[nH]c5ccccc45)NC(=O)[C@H](CCCCN)NC(=O)[C@H](CCC(N)=O)NC1=O)C(=O)N[C@@H](CC(=O)O)C(=O)N[C@@H](CCC(=O)O)C(=O)N[C@@H](CCC(=O)O)C(=O)N[C@@H](CCCNC(=N)N)C(=O)N[C@@H](C)C(=O)N3)NC(=O)[C@H](CCCNC(=N)N)NC(=O)[C@H](CC(C)C)NC(=O)CNC(=O)[C@H](CCC(=O)O)NC2=O [compound 744] | 1420 nM | 374 | 217 | 825 nM | 3.8 nM | 
